The values that follow come from US7482340B2, “Pyridine derivatives useful for inhibiting sodium/calcium exchange system” (Orion Corporation, priority 2003, dated 2009).

The subject of this assay is guinea-pig papillary muscles. The assay is described as follows: Inhibition of ouabain-induced arrhythmias (aftercontractions) in guinea-pig papillary muscles. As to conditions: 10 μM concentration; guinea-pig papillary muscle paced at 1 Hz, 37° C. Here is the method: The effects of the compounds of the invention were tested on ouabain-induced arrhythmias in guinea-pig papillary muscles.
Guinea-pig papillary muscles were mounted into horizontal muscle cuvette. A hook connected to force transducer was attached to another end of the muscle. Muscle preparations were electrically paced at 1 Hz with field stimulation via platinum electrodes. Modified Tyrode solution was used for superfusion of muscle preparations. The composition of the Tyrode solution was the following (mM): NaCl 135, MgCl2×6H2O 1, KCl 5, CaCl2×2H2O 2, NaHCO3 15, Na2HPO4×2H2O 1, and glucose 10. The Tyrode solution was gassed with carbogen (95% O2, 5% CO2) to set pH at 7.4. Experiments were carried out at 37° C. Acquisition and analysis of twitch tensions with Action Potential and Force Measurement System (ACFO v1.0, Fision Ltd, Finland).
Ouabain by blocking of sodium-potassium ATPase increases intracellular sodium which is changed for calcium via NCX. Increased intracellular calcium is leading to overload of sarcoplasmic reticulum (SR) and spontaneous calcium release from SR inducing delayed […] (DADs). Equivalence for DADs in force signal is aftercontractions (ACs) which are seen as spontaneous twitches after the pacing controlled twitch.
The antiarrhythmic effects of the title compounds of Examples 13, 33, 14a and 14b were examined.

As to `NCC(=O)Nc1ccc(Oc2ccc3c(c2)CCC(c2ccccc2)O3)nc1` (stereo not shown) [Example 33, 2-Amino-N-[6-(2-phenylchroman-6-yloxy)pyridin-3-yl]acetamide], the “inhibition of the emergency of ouabain-induced second aftercontraction” value was “inhibit completely”.
